From patent publication US20030236306A1, “Stabilized formulations of alpha adrenergic receptor antagonists and the uses thereof” (priority 2002, published 2003)
“Also recorded” adds a separate entry of the source. Counter-ions that a name gives are not always drawn.

What was measured:
[1] = Wide-range pH-stability profiling at 40° C.; type: physicochemical; conditions: 0.1 mg/ml, pH 2-8, 50 mM phosphate or acetate, FIG. 1
Description: (§1) The drug is monitored at a detection wavelength of 232 nm.
All samples were stored in the dark.
The phosphate buffers were prepared by adding phosphoric acid (3.40 ml) to de-ionized (DI) water, adjusting the pH with 2 N NaOH, and bringing the volume to 1 L in a volumetric flask. The acetate buffers were prepared by adding acetic acid (2.95 ml) to water, adjusting the pH value with 2 N NaOH, and bringing the volume to 1 L in a volumetric flask.
Measurements were performed for pH after samples had been analyzed by HPLC.
In all stability studies, glass serum vials with rubber closures and flip-top seals were used for storage of the samples to minimize fluid loss. The weights of samples were measured at the beginning of the experiment, prior to sampling for analysis, and after resealing the vials to monitor for any weight loss due to heating. No significant weight loss was observed.
At each pH, the concentration was divided by the corresponding initial concentration (day 0) to obtain the percent recovery. The percent recovery was plotted against time for calculation of first-order rate kinetics. The slope of each pH line was calculated as the rate constant and plotted against pH to obtain a wide-range pH-stability profile.

[2] = Effect of sodium acetate buffer concentration on stability, pH 3.5, 60° C.; type: physicochemical
Description: as §1
Tightly sealed glass vials containing the test solutions were placed in an oven at 40° C. or 60° C. All samples were stored in the dark. Aliquots were removed at designated time points for HPLC analysis and pH measurement.
In conjunction with HPLC analysis, pH was measured. The measurement was performed using the same samples as used for the HPLC analysis. The pH meter was calibrated using pH 4.00 and 7.00 buffer standards prior to each measurement.
Samples were incubated at 60° C. with scheduled testing performed at day 0, 2, 7, and 14. The various buffer concentrations were prepared by diluting the 50 mM buffer with water and re-examining the pH value to determine if the pH 3.5 was constant. Measurements of pH were performed after HPLC analysis of the samples.

[3] = Effect of additives on stability, pH 3.5, 60° C.; type: physicochemical; conditions: 10 mM Sodium Acetate
Description: as §1
The pH value of the solutions was readjusted to pH 3.5, as required.
All samples were placed in 10 ml glass serum vials, stoppered with rubber closures with an inert coating (Daikyo Flurotec by WEST Pharmaceutical), and sealed with flip-top caps after sampling. Vials were placed at 60° C. after the weights were recorded.
Sampling occurred at the initial time point and on days 2, 7, and 14.
Vials were weighed, sampled, sealed, re-weighed, and replaced under the selected storage condition until testing at the subsequent time point.

[4] = Tonicity testing by vapor pressure osmometer; type: physicochemical; conditions: 0.5 mg/ml disodium EDTA, pH 3.5
Source text: A vapor pressure osmometer (Westcore Model 5500) was used to measure the osmolarity of the solutions as well as a control of Normal Saline solution (0.9% sodium chloride, USP). The tonicity of the phentolamine solutions was represented by osmolarity. The measured osmolarity was plotted against d-mannitol concentration. A linear relationship was obtained between the osmolarity and d-mannitol concentration. The concentration of d-mannitol required to achieve the same osmolarity as the Normal Saline solution was calculated for the 10 or 50 mM sodium acetate buffered solution.

[5] = systemic doses, usually with marked hypotensive episodes; cited from earlier work
[6] = tested on: local anesthetic containing an alpha adrenergic receptor agonist; conditions: solution of 0.05 mg/ml; cited from earlier work

Cc1ccc(N(CC2=NCCN2)c2cccc(O)c2)cc1 [Phentolamine Mesylate, phentolamine mesylate]
wide-range pH-stability profile (rate of degradation) [1]: significant increase in rate of degradation was observed at pH above 7; also recorded: samples prepared in acetate buffers appeared to be more stable than their counterparts in the phosphate buffers | pH ([2]; Sodium Acetate 0 mM (un-buffered), Day 0): 3.6 | pH ([2]; Sodium Acetate 0 mM (un-buffered), Day 2): 4.4 | pH ([2]; Sodium Acetate 0 mM (un-buffered), Day 7): 5.1 | pH ([2]; Sodium Acetate 0 mM (un-buffered), Day 14): 5.3 | pH ([2]; Sodium Acetate 5 mM, Day 0): 3.5 | pH ([2]; Sodium Acetate 5 mM, Day 2): 3.8 | pH ([2]; Sodium Acetate 5 mM, Day 7): 3.8 | pH ([2]; Sodium Acetate 5 mM, Day 14): 3.8 | pH ([2]; Sodium Acetate 10 mM, Day 0): 3.5 | pH ([2]; Sodium Acetate 10 mM, Day 2): 3.7 | pH ([2]; Sodium Acetate 10 mM, Day 7): 3.8 | pH ([2]; Sodium Acetate 10 mM, Day 14): 3.7 | pH ([2]; Sodium Acetate 50 mM, Day 0): 3.5 | pH ([2]; Sodium Acetate 50 mM, Day 2): 3.6 | pH ([2]; Sodium Acetate 50 mM, Day 7): 3.6 | pH ([2]; Sodium Acetate 50 mM, Day 14): 3.6 | Rate Constant (zero-order) ([3]; EDTA, 0.7 mg/ml): 0.438 µg/mL/day | Phentolamine Concentration ([3]; EDTA, 0.7 mg/ml, Day 0): 106 µg/mL | Phentolamine Concentration ([3]; EDTA, 0.7 mg/ml, Day 2): 103 µg/mL | Rate Constant (zero-order) ([3]; Glycerol, 25% w/v): 0.726 µg/mL/day | Rate Constant (zero-order) ([3]; NaCl, 50 mg/ml): 1.663 µg/mL/day | Rate Constant (zero-order) ([3]; Niacinamide, 50 mg/ml): -0.026 µg/mL/day | Rate Constant (zero-order) ([3]; No additive): 1.027 µg/mL/day | Rate Constant (zero-order) ([3]; Propylene glycol, 25% w/v): 1.019 µg/mL/day | Rate Constant (zero-order) ([3]; Sodium metabisulfite, 0.5 mg/ml): 1.903 µg/mL/day | Rate Constant (zero-order) ([3]; d-Mannitol, 40 mg/ml): 0.416 µg/mL/day | Rate Constant (zero-order) ([3]; α-Cyclodextran, 50 mg/ml): 0.501 µg/mL/day | Calculated % Mannitol for Isotonicity ([4]; 10 mM sodium acetate): 5.03% | Calculated % Mannitol for Isotonicity ([4]; 50 mM sodium acetate): 4.39% | Measured Osmolality ([4]; 2% Mannitol, 10 mM sodium acetate): 176 mmol/kg | Measured Osmolality ([4]; 2% Mannitol, 50 mM sodium acetate): 193 mmol/kg | Measured Osmolality ([4]; 3% Mannitol, 10 mM sodium acetate): 213 mmol/kg | Measured Osmolality ([4]; 3% Mannitol, 50 mM sodium acetate): 234 mmol/kg | Measured Osmolality ([4]; 4% Mannitol, 10 mM sodium acetate): 253 mmol/kg | Measured Osmolality ([4]; 4% Mannitol, 50 mM sodium acetate): 276 mmol/kg | side effects reported in package insert [5]: Myocardial infarction, cerebrovascular spasm, and cerebrovascular occlusion have been reported | reversal of local anesthetic effect [6]: can rapidly reverse the effect of a local anesthetic
